According to ChEMBL document CHEMBL4346723, “Targeting tropomyosin receptor kinase for cancer therapy” (Eur J Med Chem, 2019):

Assays:
PANC-1 = assay: Antiproliferative activity against human PANC1 cells at 10 uM incubated for 48 hrs by MTT assay relative to control; type: functional
MIA PaCa-2 = assay: Antiproliferative activity against human MIAPaCa2 cells at 10 uM incubated for 48 hrs by MTT assay relative to control; type: functional
BXPC-3 = assay: Antiproliferative activity against human BxPC3 cells at 10 uM incubated for 48 hrs by MTT assay relative to control; type: functional
Aurora kinase A = molecular target: T1, Aurora kinase A (Homo sapiens, UniProt O14965); assay: Inhibition of aurora A (unknown origin)
T1 sequence (O14965 whole entry): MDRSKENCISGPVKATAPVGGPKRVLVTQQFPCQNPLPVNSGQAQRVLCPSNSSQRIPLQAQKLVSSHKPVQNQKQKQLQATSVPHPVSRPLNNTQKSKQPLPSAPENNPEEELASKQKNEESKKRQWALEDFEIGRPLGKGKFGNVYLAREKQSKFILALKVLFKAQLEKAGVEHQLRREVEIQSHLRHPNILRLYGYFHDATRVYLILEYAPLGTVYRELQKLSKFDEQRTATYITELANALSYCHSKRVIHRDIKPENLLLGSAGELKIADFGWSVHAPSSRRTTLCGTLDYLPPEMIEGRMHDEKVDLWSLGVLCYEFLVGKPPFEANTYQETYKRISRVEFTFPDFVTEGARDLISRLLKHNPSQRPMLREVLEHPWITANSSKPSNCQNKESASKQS

[1] = molecular target: RAF proto-oncogene serine/threonine-protein kinase (Homo sapiens, UniProt P04049); assay: Inhibition of c-RAF (unknown origin)
Sequence of RAF proto-oncogene serine/threonine-protein kinase (P04049 whole entry): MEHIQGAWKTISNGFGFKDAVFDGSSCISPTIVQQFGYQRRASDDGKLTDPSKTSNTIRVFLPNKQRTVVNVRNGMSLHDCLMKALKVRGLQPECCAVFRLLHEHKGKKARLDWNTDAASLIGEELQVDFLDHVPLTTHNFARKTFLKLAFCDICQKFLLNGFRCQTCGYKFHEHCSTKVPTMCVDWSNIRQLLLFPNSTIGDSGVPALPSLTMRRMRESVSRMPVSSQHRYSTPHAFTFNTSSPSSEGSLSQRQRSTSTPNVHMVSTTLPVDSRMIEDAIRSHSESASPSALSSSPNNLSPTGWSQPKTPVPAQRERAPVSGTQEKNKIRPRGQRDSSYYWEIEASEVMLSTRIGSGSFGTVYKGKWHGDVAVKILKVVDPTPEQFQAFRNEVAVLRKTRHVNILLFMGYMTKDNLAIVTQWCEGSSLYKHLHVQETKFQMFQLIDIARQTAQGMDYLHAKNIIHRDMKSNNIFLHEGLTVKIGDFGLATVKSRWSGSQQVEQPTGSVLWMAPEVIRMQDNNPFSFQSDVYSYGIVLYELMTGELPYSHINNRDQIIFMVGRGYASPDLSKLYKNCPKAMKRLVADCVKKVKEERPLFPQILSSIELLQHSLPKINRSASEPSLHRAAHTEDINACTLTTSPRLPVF

| SMILES | Activity (PANC-1) | Activity (MIA PaCa-2) | Activity (BXPC-3) | IC50 (Aurora kinase A) | IC50 [1] |
| --- | --- | --- | --- | --- | --- |
| CN(C)S(=O)(=O)c1cc(-c2cnc3[nH]cc(-c4ccncc4)c3c2)cnc1N | 30% | <20% | <20% | – | – |
| Cc1cn(-c2cc(C(=O)Nc3cccc(Nc4ccc5c(c4)NC(=O)/C5=C\c4ccc[nH]4)c3)cc(C(F)(F)F)c2)cn1 | – | – | – | 15 nM | 116 nM |
